Assay results as given in US6696495B2, “Treatment of disorders secondary to organic impairments” (Snowden Pharmaceuticals, LLC, priority 1998, dated 2004).
Like-named read-outs stand apart in the source and are kept apart here.

Columns and labels:
[1] = tested on: Tourette's Tics, Asocial Behavior, and Relief of Hyposexuality; conditions: for response to other medications: before sibutramine
[2] = tested on: Reflex Sympathetic Dystrophy Syndrome (RSDS); Complex Regional Pain Syndrome (CRPS); assay: Case history 27; assay type: in vivo, human
[3] = tested on: Severe Atypical Psychosis; assay: Case history 1, Sibutramine Patient No. 97; assay type: in vivo, human
[4] = tested on: Non-Tourette's tics, obsessive-compulsive rituals, and attention deficit hyperactive disorder (ADHD); conditions: before sibutramine
[5] = tested on: Sexual Obsessive-Compulsive Behavior, ADD and Executive Function; assay: Case history 6, Sibutramine Patient No. 77; assay type: in vivo, human; conditions: before sibutramine
[6] = tested on: Sexual Function, ADD, and Rage Outbursts; assay: Case history 3, Sibutramine Patient No. 100; assay type: in vivo, human
[7] = tested on: Severe Post-Traumatic Stress Reaction
Procedure: Finally, this patient was taken off of fluoxetine 20 mg when sibutramine treatment was initiated.

[8] = tested on: Asocial Behavior, Violence, and Hyposexuality; assay: Case history 10, Sibutramine Patient No. 54; assay type: in vivo, human; conditions: before sibutramine
[9] = tested on: Tourette's Disease Tics, Violence, and ADHD; assay: Case history 8, Sibutramine Patient No. 47; assay type: in vivo, human
[10] = tested on: frontal lobe executive function, ADHD, and hyposexuality; conditions: human, in vivo
[11] = tested on: Sexual Gender Choice Change; assay: Case history 7, Sibutramine Patient No. 99; assay type: in vivo, human
[12] = tested on: Huntington's Disease; assay: Case history 12, Sibutramine Patient No. 113; assay type: in vivo, human; conditions: after worsening of symptoms
[13] = tested on: Sexual Function and ADD; assay: Case history 4, Sibutramine Patient No. 109; assay type: in vivo, human; conditions: before sibutramine
[14] = tested on: Fibromyalgia—Chronic Fatigue Syndrome; conditions: before sibutramine
[15] = mood swings, cognitive, anger, sexual problems, before sibutramine
[16] = over six years before sibutramine
[17] = depression, impulsive behaviors, mood swings, epileptic symptoms

## CN1CCN(C2=Nc3cc(Cl)ccc3Nc3ccccc32)CC1 [Clozapine]
[1]; human, in vivo
  fall of IQ: 30 points

## CN(C)CCC=C1c2ccccc2CCc2ccccc21 [Elavil]
[2]; before sibutramine
  response to other treatments: helped their sleep and slightly increased their appetite but did not affect the pain

## NCC1(CC(=O)O)CCCCC1 [Neurontin]
[2]; before sibutramine
  response to other treatments: ineffective

## NC12CC3CC(CC(C3)C1)C2 [amantadine]
[3]; treatments before sibutramine
  response of psychosis symptoms to other medications: without success

## CC(N)Cc1ccccc1 (stereo not drawn) [amphetamine]
[4]
  response to other medications: helped their hyperactivity and OCD symptoms in part

## CC(NC(C)(C)C)C(=O)c1cccc(Cl)c1 (stereo not drawn) [bupropion]
[5]
  response to other medications: unsuccessful
[6]; [15]
  response to other medications: unsuccessful

## O=C1CC2(CCCC2)CC(=O)N1CCCCN1CCN(c2ncccn2)CC1 [buspirone]
[3]; treatments before sibutramine
  response of psychosis symptoms to other medications: without success
[7]; human, in vivo
  response of PTSD symptoms to other medications: unsuccessful

## OC(O)C(Cl)(Cl)Cl [chloral hydrate]
[8]
  response to other medications: without any changes in their speech or mode of communication

## CN(C)CCCN1c2ccccc2CCc2ccc(Cl)cc21 [clomipramine]
[1]
  response to other medications: without success
[9]; [16]
  response to other medications: without any good results

## Clc1cccc(Cl)c1N=C1NCCN1 [clonidine]
[9]; [16]
  response to other medications: without any good results

## CNCCCN1c2ccccc2CCc2ccccc21 [desipramine]
[9]; [16]
  response to other medications: without any good results
[6]; [15]
  response to other medications: not helpful

## CCN[C@@H](C)Cc1cccc(C(F)(F)F)c1 [dextrofenfluramine]
[1]
  response to other medications: without success

## COc1cc2c(cc1OC)C(=O)C(CC1CCN(Cc3ccccc3)CC1)C2 (stereo not drawn) [donepezil]
[1]
  response to other medications: without success
[10]
  response to other medications: unsuccessful
[9]; [16]
  response to other medications: helped their cognitive problems without aggravating their tics or their outbursts
[4]
  response to other medications: unsuccessful
[11]; [17]
  response to other medications: refractory
[6]; [15]
  response to other medications: not helpful

## NC(=O)OCC(COC(N)=O)c1ccccc1 [felbamate]
[1]
  response to other medications: without success
[9]; [16]
  response to other medications: without any good results

## CCNC(C)Cc1cccc(C(F)(F)F)c1 (stereo not drawn) [fenfluramine]
[1]
  response to other medications: without success
[9]; [16]
  response to other medications: without any good results
[7]; before sibutramine
  response of PTSD symptoms to other medications: unsuccessful
[8]
  response to other medications: without any changes in their speech or mode of communication
[6]; [15]
  response to other medications: not helpful

## OCCN1CCN(CCCN2c3ccccc3Sc3ccc(C(F)(F)F)cc32)CC1 [fluphenazine]
[1]
  response to other medications: without success

## COCCCC/C(=N\OCCN)c1ccc(C(F)(F)F)cc1 [fluvoxamine]
[1]
  response to other medications: without success
[4]
  response to other medications: helped their hyperactivity and OCD symptoms in part

## NCC1(CC(=O)O)CCCCC1 [gabapentin]
[1]
  response to other medications: without success
[12]
  response to previous medications: no longer responded
[9]; [16]
  response to other medications: without any good results
[11]; [17]
  response to other medications: refractory

## O=C(CCCN1CCC(O)(c2ccc(Cl)cc2)CC1)c1ccc(F)cc1 [haloperidol]
[1]
  response to other medications: without success
[3]; treatments before sibutramine
  response of psychosis symptoms to other medications: without success
[5]
  response to other medications: unsuccessful
[8]
  response to other medications: without any changes in their speech or mode of communication

## OCCOCCN1CCN(C(c2ccccc2)c2ccc(Cl)cc2)CC1 (stereo not drawn) [hydroxyzine]
[9]; [16]
  response to other medications: without any good results

## CN(C)CCCN1c2ccccc2CCc2ccccc21 [imipramine]
[11]; [17]
  response to other medications: refractory
[6]; [15]
  response to other medications: unsuccessful

## Nc1nnc(-c2cccc(Cl)c2Cl)c(N)n1 [lamotrigine]
[1]
  response to other medications: without success
[10]
  response to other medications: unsuccessful
[9]; [16]
  response to other medications: without any good results
[4]
  response to other medications: without success
[6]; [15]
  response to other medications: not helpful
[13]
  response to other medications: unsuccessful

## CCN(CC)CC(=O)Nc1c(C)cccc1C [lidocaine]
[2]; in vivo
  response to other treatments: numbed the area

## O=C([O-])[O-].[Li+].[Li+] [lithium carbonate]
[11]; human, in vivo
  response to other medications: refractory
[6]; human, in vivo
  response to other medications: unsuccessful and made their obesity worse

## O=C1Nc2ccc(Cl)cc2C(c2ccccc2Cl)=NC1O (stereo not drawn) [lorazepam]
[3]; treatments before sibutramine
  response of psychosis symptoms to other medications: without success

## COc1ccc2cc(CCC(C)=O)ccc2c1 [nabumetone]
[14]
  response to other medications: unsuccessfully

## CC(C)(C)NCC(O)COc1cccc2c1CC(O)C(O)C2 (stereo not drawn) [nadolol]
[8]
  response to other medications: without any changes in their speech or mode of communication

## CNCCC=C1c2ccccc2CCc2ccccc21 [nortriptyline]
[6]; human, in vivo
  response to other medications: unsuccessful

## O=C(O)CCc1nc(-c2ccccc2)c(-c2ccccc2)o1 [oxaprozin]
[14]
  response to other medications: unsuccessfully

## NC(=O)N1c2ccccc2CC(=O)c2ccccc21 [oxcarbazepine]
[7]; before sibutramine
  response of PTSD symptoms to other medications: unsuccessful

## Fc1ccc([C@@H]2CCNC[C@H]2COc2ccc3c(c2)OCO3)cc1 [paroxetine]
[3]; treatments before sibutramine
  response of psychosis symptoms to other medications: without success

## NC1=NC(=O)C(c2ccccc2)O1 (stereo not drawn) [pemoline]
[7]; before sibutramine
  response of PTSD symptoms to other medications: unsuccessful

## CC(C)(N)Cc1ccccc1 [phenteramine]
[6]; [15]
  response to other medications: helped them lose a small amount of weight but did not affect their other problems

## O=C1NC(=O)C(c2ccccc2)(c2ccccc2)N1 [phenytoin]
[9]; [16]
  response to other medications: without any good results
[7]; before sibutramine
  response of PTSD symptoms to other medications: unsuccessful

## CC(C)NCC(O)COc1cccc2ccccc12 (stereo not drawn) [propranolol]
[9]; [16]
  response to other medications: without any good results
[8]
  response to other medications: without any changes in their speech or mode of communication
[13]
  response to other medications: unsuccessful

## OCCOCCN1CCN(C2=Nc3ccccc3Sc3ccccc32)CC1 [quetiapine]
[3]; treatments before sibutramine
  response of psychosis symptoms to other medications: did not control their symptoms
[9]; [16]
  response to other medications: without any good results
[8]
  response to other medications: without any changes in their speech or mode of communication

## Cc1nc2n(c(=O)c1CCN1CCC(c3noc4cc(F)ccc34)CC1)CCCC2 [risperidone]
[3]; human, in vivo
  response of psychosis symptoms to other medications: without success
[9]; human, in vivo
  response to other medications: without any good results

## CCCN(CCC)CCc1cccc2c1CC(=O)N2 [ropinirole]
[4]
  response to other medications: unsuccessful

## C#CCN(C)[C@H](C)Cc1ccccc1 [selegiline]
[1]
  response to other medications: without success
[10]
  response to other medications: unsuccessful
[9]; [16]
  response to other medications: without any good results
[6]; [15]
  response to other medications: not helpful

## CN[C@H]1CC[C@@H](c2ccc(Cl)c(Cl)c2)c2ccccc21 [sertraline]
[11]; [17]
  response to other medications: refractory

## CCCc1nn(C)c2c(=O)[nH]c(-c3cc(S(=O)(=O)N4CCN(C)CC4)ccc3OCC)nc12 [sildenafil]
[10]
  response to other medications: helped correct the mechanical dysfunction but not the libido
[6]; [15]
  response to other medications: did not help their sexual libido
[13]
  response to other medications: only increased sexual function but not libido

## Nc1c2c(nc3ccccc13)CCCC2 [tacrine]
[1]
  response to other medications: without success
[9]; [16]
  response to other medications: without any good results

## CSc1ccc2c(c1)N(CCC1CCCCN1C)c1ccccc1S2 (stereo not drawn) [thioridazine]
[8]
  response to other medications: without any changes in their speech or mode of communication

## N[C@@H](Cc1cc(I)c(Oc2cc(I)c(O)c(I)c2)c(I)c1)C(=O)O [thyroxine]
[6]; [15]
  response to other medications: not helpful

## COc1cccc(C2(O)CCCCC2CN(C)C)c1 (stereo not drawn) [tramadol]
[14]
  response to other medications: unsuccessfully

## CN1CCN(CCCN2c3ccccc3Sc3ccc(C(F)(F)F)cc32)CC1 [trifluoperazine]
[3]; treatments before sibutramine
  response of psychosis symptoms to other medications: without success

## CCCC(CCC)C(=O)O [valproic acid]
[1]
  response to other medications: without success
[5]
  response to other medications: unsuccessful
[9]; [16]
  response to other medications: without any good results
[7]; before sibutramine
  response of PTSD symptoms to other medications: unsuccessful
[6]; [15]
  response to other medications: not helpful
[13]
  response to other medications: helped their anger attacks but interfered with their concentration considerably and did not help their sexual problems

## COC(=O)[C@@H]1[C@H]2C[C@H]3c4[nH]c5ccccc5c4CCN3C[C@@H]2CC[C@@H]1O [yohimbine]
[13]
  response to other medications: unsuccessful
